Assays:
[1] = Growth curves (body weight), daily oral administration; format: in vivo, mouse (ICR type); settings: male and female ICR mice, 10, 100, and 1,000 μg/kg.day orally
Description: (§1) Solutions obtained by dissolving the present substance, 24R,25-(OH)2 -D3 in a prescribed concentration in triglyceride of a fatty acid of 8 to 10 carbon atoms containing 1% of ethanol were administered respectively, orally, forcedly and daily to three male-groups and three female-groups of ICR type mice 5 weeks old at dosages of 10, 100, and 1,000 μg/kg.day. The results are compared below with respect to the following items with those obtained of the male- and female-groups using only the solvent without the present substance.

[2] = Acute toxicity, oral administration; format: in vivo; settings: mouse, in vivo, po
Description: (§2) A test solution was prepared by dissolving the present substance, 24R,25-(OH)2 -D3, in ethanol and again dissolving the resultant ethanol solution in triglyceride ester of a fatty acid of 8 to 10 carbon atoms so that the ethanol concentration is 2%. Then, the test solution was orally administered (p.o.) at a dose of 100 mg/kg to a test group of 10 ICR type male mice (each weighing 25±3 g). For two weeks, the mice were kept under observation for sign of toxication. […] They were then sacrificed and subjected to biochemical blood inspection, anatomical observation, and histopathological inspection.

ICR type male mice = assay: Acute toxicity, oral administration; format: in vivo; settings: 100 mg/kg p.o.
Description: as §2

ICR type mice [3] = assay: Histopathological inspection of internal organs (haematoxylin eosine); format: in vivo, mouse (ICR type); settings: male and female ICR mice, 10, 100, and 1,000 μg/kg.day orally
Description: as §1
The following internal organs were fixed with 10% formalin, tinted with haematoxylin eosine dye, and subjected to histopathological inspection.
Brain, heart, lung, liver, kidney, adrenal gland, spleen, pancreas, thyroid gland, pituitary gland, thymus, mesentery lymphoglandia, testis, ovary, uterus, stomach, small intestines (jejunum, ileum, and duodenum), large intestines (colon and caecum), orb, submaxillary gland, urinary bladder, dorsal skin, muscle, sternum, sternal medulla, femur, and femoral medulla.

ICR type mice [4] = assay: Biochemical inspection of blood serum, daily oral administration; format: in vivo, mouse (ICR type); parameters: key: .dwnarw.: Decrease below control; →: No difference from control; .uparw.: Increase above control
Excerpt: The results are compared below with respect to the following items with those obtained of the male- and female-groups using only the solvent without the present substance.

[5] = test system: femurs and tibias of male Wister rats; assay: Soft X-ray photographs: volumes of cortical bone and sponge bone; format: in vivo, rat (Wister); settings: 400 μg/kg.day orally, 24 months, vs control
Description: Male Wister rats 4 weeks old were preliminarily kept for two weeks. For the subsequent 24 months, the present substance, 24R,25-(OH)2 -D3, was orally administered daily at a dosage of 400 μg/kg.day to the pre-bred rats. Then, the aged rats were sacrificed and their femurs and tibias were collected in the form with adhering flesh, and soft X-ray photographs thereof were taken with a camera (produced by Soflon Corp. and marketed under product code of "Model NST-1005"). By the obtained photographs the volumes of the cortical bone and the sponge bone were measured. Further, as to a part of the femurs the central portion in the direction of the major axis of the femurs was inspected with a microdensitometer thereby analyzing the picture of pattern of shade concentration to calculate the index by the conventional M.D. method. As regards the manner of administration, a modified feed was prepared by uniformly dispersing a prescribed amount of the present substance, 24R,25-(OH)2 -D3, in glycine and admixing the resultant dispersing mixture with a marketed feed (produced by Nippon Clea Co., Ltd. under product code of "CE-2") in such a ratio as to give a final glycine concentration of 0.5% by weight, and the modified feed was consumed by the rats. To the rats of the control group, the same marketed feed containing 0.5% by weight of glycine was given.

What does the source list for `C=C1CC[C@H](O)C/C1=C/C=C1\CCC[C@]2(C)[C@@H]([C@H](C)CC[C@@H](O)C(C)(C)O)CC[C@@H]12` [24R,25-(OH)2 -D3]?
change of body weight (growth curves) [1]: absence of a discernible difference; LD50 at 336 h [2]: ≥ 100 mg/kg; sign of abnormality (ICR type male mice; 10 ICR male mice, two weeks): no sign of abnormality; survival (ICR type male mice; 10 ICR male mice, two weeks): All of the mice survived; biochemical blood inspection, anatomical observation, and histopathological inspection vs control (ICR type male mice; ICR male mice, after two weeks): not different at all; histopathological inspection of internal organs (ICR type mice [3]): no discernible abnormality; A/G (ICR type mice [4]; female, 10 μg/kg): →; ALP (ICR type mice [4]; female, 10 μg/kg): →; Alb (ICR type mice [4]; female, 10 μg/kg): →; BUN (ICR type mice [4]; female, 10 μg/kg): →; Ca (ICR type mice [4]; female, 10 μg/kg): →; GOT (ICR type mice [4]; female, 10 μg/kg): →; GPT (ICR type mice [4]; female, 10 μg/kg): →; Glu (ICR type mice [4]; female, 10 μg/kg): →; I-P (ICR type mice [4]; female, 10 μg/kg): →; LDH (ICR type mice [4]; female, 10 μg/kg): →; T-Bil (ICR type mice [4]; female, 10 μg/kg): →; T-CHO (ICR type mice [4]; female, 10 μg/kg): →; T-P (ICR type mice [4]; female, 10 μg/kg): →; A/G (ICR type mice [4]; female, 100 μg/kg): →; ALP (ICR type mice [4]; female, 100 μg/kg): →; Alb (ICR type mice [4]; female, 100 μg/kg): →; BUN (ICR type mice [4]; female, 100 μg/kg): →; Ca (ICR type mice [4]; female, 100 μg/kg): →; GOT (ICR type mice [4]; female, 100 μg/kg): →; GPT (ICR type mice [4]; female, 100 μg/kg): →; Glu (ICR type mice [4]; female, 100 μg/kg): →; I-P (ICR type mice [4]; female, 100 μg/kg): →; LDH (ICR type mice [4]; female, 100 μg/kg): →; T-Bil (ICR type mice [4]; female, 100 μg/kg): →; T-CHO (ICR type mice [4]; female, 100 μg/kg): →; T-P (ICR type mice [4]; female, 100 μg/kg): →; A/G (ICR type mice [4]; female, 1000 μg/kg): →; ALP (ICR type mice [4]; female, 1000 μg/kg): →; Alb (ICR type mice [4]; female, 1000 μg/kg): →; BUN (ICR type mice [4]; female, 1000 μg/kg): →; Ca (ICR type mice [4]; female, 1000 μg/kg): →; GOT (ICR type mice [4]; female, 1000 μg/kg): →; GPT (ICR type mice [4]; female, 1000 μg/kg): →; Glu (ICR type mice [4]; female, 1000 μg/kg): →; I-P (ICR type mice [4]; female, 1000 μg/kg): →; LDH (ICR type mice [4]; female, 1000 μg/kg): →; T-Bil (ICR type mice [4]; female, 1000 μg/kg): →; T-CHO (ICR type mice [4]; female, 1000 μg/kg): →; T-P (ICR type mice [4]; female, 1000 μg/kg): →; A/G (ICR type mice [4]; male, 10 μg/kg): →; ALP (ICR type mice [4]; male, 10 μg/kg): →; Alb (ICR type mice [4]; male, 10 μg/kg): →; BUN (ICR type mice [4]; male, 10 μg/kg): →; Ca (ICR type mice [4]; male, 10 μg/kg): →; GOT (ICR type mice [4]; male, 10 μg/kg): →; GPT (ICR type mice [4]; male, 10 μg/kg): →; Glu (ICR type mice [4]; male, 10 μg/kg): →; I-P (ICR type mice [4]; male, 10 μg/kg): →; LDH (ICR type mice [4]; male, 10 μg/kg): →; T-Bil (ICR type mice [4]; male, 10 μg/kg): →; T-CHO (ICR type mice [4]; male, 10 μg/kg): →; T-P (ICR type mice [4]; male, 10 μg/kg): →; A/G (ICR type mice [4]; male, 100 μg/kg): →; ALP (ICR type mice [4]; male, 100 μg/kg): →; Alb (ICR type mice [4]; male, 100 μg/kg): →; BUN (ICR type mice [4]; male, 100 μg/kg): →; Ca (ICR type mice [4]; male, 100 μg/kg): →; GOT (ICR type mice [4]; male, 100 μg/kg): →; GPT (ICR type mice [4]; male, 100 μg/kg): →; Glu (ICR type mice [4]; male, 100 μg/kg): →; I-P (ICR type mice [4]; male, 100 μg/kg): →; LDH (ICR type mice [4]; male, 100 μg/kg): →; T-Bil (ICR type mice [4]; male, 100 μg/kg): →; T-CHO (ICR type mice [4]; male, 100 μg/kg): →; T-P (ICR type mice [4]; male, 100 μg/kg): →; A/G (ICR type mice [4]; male, 1000 μg/kg): →; ALP (ICR type mice [4]; male, 1000 μg/kg): →; Alb (ICR type mice [4]; male, 1000 μg/kg): →; BUN (ICR type mice [4]; male, 1000 μg/kg): .dwnarw.; Ca (ICR type mice [4]; male, 1000 μg/kg): →; GOT (ICR type mice [4]; male, 1000 μg/kg): →; GPT (ICR type mice [4]; male, 1000 μg/kg): →; Glu (ICR type mice [4]; male, 1000 μg/kg): .dwnarw.; I-P (ICR type mice [4]; male, 1000 μg/kg): →; LDH (ICR type mice [4]; male, 1000 μg/kg): .dwnarw.; T-Bil (ICR type mice [4]; male, 1000 μg/kg): .dwnarw.; T-CHO (ICR type mice [4]; male, 1000 μg/kg): →; T-P (ICR type mice [4]; male, 1000 μg/kg): →; cortical bone width [5]: increase; lateral diameter, D [5]: increase; trabecula of the sponge bone at epiphysis [5]: increase

Reference: patent US5001118A, “Method for preventing senescence and increasing bone mass” (priority 1986, dated 1991)
